Laboratory results: US20220341922A1, “FLUORESCENT PROBE FOR USE IN DETECTION OF BRAIN TUMOR” (The University of Tokyo, priority 2019, published 2022)

Tests used:
[1] = molecular target: T1, cathepsin D (Homo sapiens, UniProt P07339); test: Change in fluorescence intensity of candidate enzymes using inhibitors; assay type: biochemical; details: candidate enzyme cathepsin D
[2] = molecular target: T2, calpain 1 (Homo sapiens, UniProt P07384); test: as above; assay type: biochemical; details: candidate enzyme calpain 1
T2 sequence (P07384 1-714): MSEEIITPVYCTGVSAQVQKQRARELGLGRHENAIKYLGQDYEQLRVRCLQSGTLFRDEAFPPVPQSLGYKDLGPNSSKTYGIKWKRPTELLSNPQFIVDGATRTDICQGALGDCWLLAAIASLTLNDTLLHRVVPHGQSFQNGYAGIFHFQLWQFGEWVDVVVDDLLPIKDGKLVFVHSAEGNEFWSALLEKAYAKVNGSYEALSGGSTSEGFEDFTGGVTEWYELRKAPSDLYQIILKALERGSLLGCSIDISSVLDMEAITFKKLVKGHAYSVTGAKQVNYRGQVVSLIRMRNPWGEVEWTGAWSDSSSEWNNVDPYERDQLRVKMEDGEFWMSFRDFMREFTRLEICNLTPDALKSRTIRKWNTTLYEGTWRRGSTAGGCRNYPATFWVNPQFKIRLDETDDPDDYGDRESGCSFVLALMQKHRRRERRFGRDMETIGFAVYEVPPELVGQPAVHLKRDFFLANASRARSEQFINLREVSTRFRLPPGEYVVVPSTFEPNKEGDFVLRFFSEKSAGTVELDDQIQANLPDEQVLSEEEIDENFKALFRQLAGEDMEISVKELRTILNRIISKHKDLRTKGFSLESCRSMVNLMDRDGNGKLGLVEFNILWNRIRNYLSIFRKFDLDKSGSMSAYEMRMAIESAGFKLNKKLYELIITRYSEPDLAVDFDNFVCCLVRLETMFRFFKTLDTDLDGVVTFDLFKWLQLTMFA
T2 sequence (P04632 1-268 partner): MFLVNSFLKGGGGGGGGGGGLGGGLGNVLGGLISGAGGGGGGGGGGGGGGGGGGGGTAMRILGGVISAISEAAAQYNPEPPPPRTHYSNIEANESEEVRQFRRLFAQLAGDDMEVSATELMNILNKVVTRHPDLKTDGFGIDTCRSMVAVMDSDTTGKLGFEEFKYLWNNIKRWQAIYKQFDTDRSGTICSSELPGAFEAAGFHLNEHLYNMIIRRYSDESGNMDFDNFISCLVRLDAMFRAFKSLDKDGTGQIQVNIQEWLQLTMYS

[3] = test system: fresh glioblastoma and peritumoral tissue; test: Screening by fluorescent probe on fresh glioblastoma and peritumoral tissue specimens; details: for tumor-specific fluorescent labeling as compared with the surrounding tissue: 50 μM probe solution in PBS, 0.5% v/v DMSO, Ex 465 nm, Em 515 nm, FIGS. 1 and 2; for fluorescence intensity in the tumor: 50 μM probe solution
Method: The fluorescent intensity of fresh glioblastoma and peritumoral tissue were compared using the fluorescent probes YK190, YK213, YK19, and YK281 synthesized in Example 1. As a comparative example, hydroxymethyl rhodamine green (HRMG) having no dipeptide site was used.
50 μM probe solutions (200 μL) in PBS, containing 0.5% v/v DMSO as a co-solvent was added dropwise to each specimen, and the fluorescence intensity was measured over time using Maestro In Vivo Imaging System Ex. • Excitation wavelength: 465 nm • Emission wavelength: 515 nm

[4] = molecular target: T1, cathepsin D; test: Reaction of fluorescent probe with purified enzyme; assay type: biochemical; details: FIG. 4
[5] = molecular target: T2, calpain 1; test: Reaction of fluorescent probe with purified enzyme; assay type: biochemical; details: purified calpain 1; FIG. 4
[6] = test system: cathepsin D knocked down in U87 glioblastoma cell line; test: Verification by siRNA knock-down using U87 cell line; assay type: cell-based; details: 48 hours culture, FIG. 5
Method: (§1) Calpain 1 and cathepsin D were knocked down by siRNA in a cell line, and a reaction with the fluorescent probe YK190 was observed. The experiment was conducted in accordance with the procedure shown below.
(§2) Transfection of U87, a glioblastoma cell line, was done with siRNA utilizing lipofectamine. A reaction with a fluorescent probe was observed after culture for 48 hours.

[7] = test system: calpain 1 knocked down in U87 glioblastoma cell line; test: as above; assay type: cell-based; details: calpain 1 knocked down by siRNA, 48 hours culture; FIG. 5
Method: as §1, §2

T1 sequence (P07339 65-412, species assumed): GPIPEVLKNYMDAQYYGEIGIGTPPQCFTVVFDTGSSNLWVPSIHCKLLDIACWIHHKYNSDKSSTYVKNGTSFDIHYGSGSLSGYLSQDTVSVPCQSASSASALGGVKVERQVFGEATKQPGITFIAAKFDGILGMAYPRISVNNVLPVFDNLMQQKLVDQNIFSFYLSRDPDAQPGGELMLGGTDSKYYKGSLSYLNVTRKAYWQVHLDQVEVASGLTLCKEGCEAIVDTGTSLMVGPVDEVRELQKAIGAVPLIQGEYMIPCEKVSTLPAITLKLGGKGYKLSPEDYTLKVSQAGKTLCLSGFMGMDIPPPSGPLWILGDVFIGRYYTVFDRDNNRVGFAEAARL

Structure (SMILES): COCCOCCOC(=O)N[C@@H](CC(C)C)C(=O)N[C@@H](Cc1ccccc1)C(=O)C(=O)NC1CC1 [SNJ-1945]
- change in fluorescence intensity with inhibitor [1]: fluorescence suppression
- change in fluorescence intensity with inhibitor [2]: fluorescence suppression

Structure (SMILES): N[C@@H](Cc1ccc(O)cc1)C(=O)O [YK19, Tyrosine]
- tumor-specific fluorescent labeling as compared with the surrounding tissue [3]: a fluorescent response was also well-obtained in a tumor-specific manner

Structure (SMILES): N=C(N)NCCC[C@H](N)C(=O)O [YK190, Arginine]
- change in fluorescence intensity by reaction with the probe [4]: significant increase in fluorescence intensity
- change in fluorescence intensity by reaction with the probe [5]: significant increase in fluorescence intensity
- tumor-specific fluorescent labeling as compared with the surrounding tissue [3]: fluorescent labeling was performed in a tumor-specific manner
- fluorescence intensity in the tumor ([3]; FIG. 2): high fluorescence intensity
- fluorescence intensity relative to YK213 ([3]; in the tumor, FIG. 2): about two times that of YK213
- fluorescence intensity compared to the control U87 cell line [6]: reduced fluorescence intensity
- fluorescence intensity compared to the control U87 cell line [7]: reduced fluorescence intensity

Structure (SMILES): N[C@@H](Cc1c[nH]cn1)C(=O)O [YK213, Histidine]
- tumor-specific fluorescent labeling as compared with the surrounding tissue [3]: fluorescent labeling was performed in a tumor-specific manner
- fluorescence intensity in the tumor ([3]; FIG. 2): high fluorescence intensity
